{"source": "patent US20100056948A1", "about": "“Stimulation of Satiety Hormone Release” (priority 2008, published 2010)", "key": {"[1]": {"test_system": "rat distal ileum (L-cells)", "assay": "GLP-1 release from isolated rat distal ileum segments into the bathing medium (active GLP-1 ELISA), with or without electrical field stimulation", "assay_type": "cell-based", "details": "for GLP-1 release, LA alone (mean ± SEM): LA 3 mg/mL 45 min, no E-stim", "description": "(§1) Female Sprague-Dawley rats, 8-12 weeks weighing 250-300 g were euthanized by CO2 and at least 17 cm of distal ileum was immediately dissected starting at the ileocecal junction. Intraluminal contents were flushed with warm modified Krebs Ringers bicarbonate (KRB) buffer and intestines placed into 50 mL tubes containing oxygenated, cold KRB buffer. Intact segments (1.5 cm) of rat distal ileum were oriented longitudinally, with the oral end fixed in the organ chamber between bipolar stimulating electrodes and the aboral end attached to a solid-state force transducer and submerged in a 10 ml-chamber containing KRB at 37° C. and constantly aerated with 95% O2/5% CO2 (FIG. 1). […] The entire assembly was placed into 37° C. KRB buffer in jacketed 10 mL myobath chambers. The length of each segment was adjusted to an initial resting tension of 1 g and maintained at 37° C. in a KRB buffer or KRB containing linoleic acid (LA, 3 mg/mL) and a dipeptidyl peptidase-4 inhibitor (to prevent proteolysis of GLP-1). Contractile activity was digitized and data acquired for off line analysis using PowerLab hardware and Chart software (ADInstruments, Colorado Springs, Colo.). In separate experiments, segments were incubated in KRB or KRB+LA in the presence or absence of electrical field stimulation continuously for 45 min. Samples of the bathing solutions taken at 45 min and mucosal epithelial scrapings were stored frozen (minus 80° C.).\nActive GLP-1 concentration in thawed aliquots was measured by fluorescence on a plate reader using an ELISA (Linco Research, St. Charles, Mo.) with a detection range of 2-100 pM. This method measures both biologically active forms of GLP-1, that is GLP-1(7-36) and (GLP-1(7-36)) amide, that are currently known to be released by the intestinal mucosa. Measurements of GLP-1 were normalized to concentration in 10 mL volume and reported as pM. The mean and SEM GLP-1 release was calculated for each treatment. For each electrical stimulation condition (+/−LA) there were 2-6 rats with 2-4 segments of tissue per rat per condition.\nStatistical analysis was performed that included all conditions (with condition defined by the combination of frequency, voltage and duration of the electrical stimulation) and included a term for condition, treatment (LA alone or LA plus electrical stimulation) as a repeated factor, and the interaction between the two. Treatment is a within-subject effect, allowing each subject's LA alone response to serve as the control for that subject's response with electrical stimulation from the same study day. GLP-1 release was analyzed by repeated measures analyses of variance (ANOVA) on all eleven conditions with LA alone or LA plus electrical stimulation as a repeated factor. The mean and SEM reported in the tables below are based on 2-6 rats per condition with data from two replicates of each electrical stimulation condition averaged per rat. The P values are reported based on repeated measures analyses of variance (ANOVA) for each analysis and for the pairwise comparisons. The data were log-transformed prior to analyses to better satisfy the underlying statistical modeling assumptions of equal variability and sampling from populations with normal distributions."}, "isolated ileum": {"test_system": "isolated ileum", "assay": "Muscle tone of isolated ileum (force transducer)", "assay_type": "cell-based, rat", "details": "for Change in muscle tone of isolated ileum after 40 min compared to KRB buffer: P<0.05 by ANOVA", "description": "as §1\nMuscle tone and contractile amplitude (calculated as the average cyclic minimum and maximum, respectively) were determined for 5 min periods, pre- (˜5 min before) and post-treatment (40 min after start). The tone and amplitude at −5 and +40 minutes for each condition was compared to that condition's baseline by one-way ANOVA."}, "[2]": {"test_system": "segments of duodenum, jejunum ileum, colon, esophagus, stomach", "assay": "GLP-1 release from segments of the entire GI tract incubated in linoleic acid", "assay_type": "cell-based, rat", "details": "LA 3 mg/mL, 45 minutes (FIG. 2)"}}}
{"smiles": "CCCCC/C=C\\C/C=C\\CCCCCCCC(=O)O", "note": "[LA, linoleic acid]", "values": [{"measurement": "GLP-1 release, LA alone (mean ± SEM)", "setting": "[1]; paired control for 0.15 Hz 0.7 V 300 ms", "result": "17.9 ± 4.1", "unit": "pM"}, {"measurement": "GLP-1 release, LA alone (mean ± SEM)", "setting": "[1]; paired control for 0.15 Hz 2 V 5 ms", "result": "12.1 ± 4.0", "unit": "pM"}, {"measurement": "GLP-1 release, LA alone (mean ± SEM)", "setting": "[1]; paired control for 0.15 Hz 5 V 5 ms", "result": "17.6 ± 5.9", "unit": "pM"}, {"measurement": "GLP-1 release, LA alone (mean ± SEM)", "setting": "[1]; paired control for 0.15 Hz 10 V 5 ms", "result": "19.5 ± 9.0", "unit": "pM"}, {"measurement": "GLP-1 release, LA alone (mean ± SEM)", "setting": "[1]; paired control for 0.15 Hz 20 V 5 ms", "result": "12.5 ± 1.7", "unit": "pM"}, {"measurement": "GLP-1 release, LA alone (mean ± SEM)", "setting": "[1]; paired control for 0.4 Hz 14 V 5 ms", "result": "11.0 ± 2.8", "unit": "pM"}, {"measurement": "GLP-1 release, LA alone (mean ± SEM)", "setting": "[1]; paired control for 0.4 Hz 14 V 300 ms", "result": "12.7 ± 2.4", "unit": "pM"}, {"measurement": "GLP-1 release, LA alone (mean ± SEM)", "setting": "[1]; paired control for 4 Hz 14 V 5 ms", "result": "8.6 ± 1.8", "unit": "pM"}, {"measurement": "GLP-1 release, LA alone (mean ± SEM)", "setting": "[1]; paired control for 20 Hz 14 V 5 ms", "result": "14.4 ± 5.9", "unit": "pM"}, {"measurement": "GLP-1 release, LA alone (mean ± SEM)", "setting": "[1]; paired control for 40 Hz 14 V 5 ms", "result": "10.2 ± 2.1", "unit": "pM"}, {"measurement": "GLP-1 release, LA alone (mean ± SEM)", "setting": "[1]; paired control for 80 Hz 14 V 5 ms", "result": "20.6 ± 3.4", "unit": "pM"}, {"measurement": "GLP-1 release, LA + E-stim (mean ± SEM)", "setting": "[1]; LA 3 mg/mL 45 min plus electrical stimulation 0.15 Hz 0.7 V 300 ms, p 0.257 vs LA alone", "result": "22.1 ± 4.2", "unit": "pM"}, {"measurement": "GLP-1 release, LA + E-stim (mean ± SEM)", "setting": "[1]; LA 3 mg/mL 45 min plus electrical stimulation 0.15 Hz 2 V 5 ms, p 0.948 vs LA alone", "result": "11.1 ± 1.0", "unit": "pM"}, {"measurement": "GLP-1 release, LA + E-stim (mean ± SEM)", "setting": "[1]; LA 3 mg/mL 45 min plus electrical stimulation 0.15 Hz 5 V 5 ms, p 0.344 vs LA alone", "result": "22.6 ± 9.4", "unit": "pM"}, {"measurement": "GLP-1 release, LA + E-stim (mean ± SEM)", "setting": "[1]; LA 3 mg/mL 45 min plus electrical stimulation 0.15 Hz 10 V 5 ms, p 0.311 vs LA alone", "result": "29.4 ± 6.6", "unit": "pM"}, {"measurement": "GLP-1 release, LA + E-stim (mean ± SEM)", "setting": "[1]; LA 3 mg/mL 45 min plus electrical stimulation 0.15 Hz 20 V 5 ms, p 0.212 vs LA alone", "result": "16.5 ± 3.7", "unit": "pM"}, {"measurement": "GLP-1 release, LA + E-stim (mean ± SEM)", "setting": "[1]; LA 3 mg/mL 45 min plus electrical stimulation 0.4 Hz 14 V 5 ms, p 0.761 vs LA alone", "result": "10.4 ± 1.8", "unit": "pM"}, {"measurement": "GLP-1 release, LA + E-stim (mean ± SEM)", "setting": "[1]; LA 3 mg/mL 45 min plus electrical stimulation 0.4 Hz 14 V 300 ms, p 0.056 vs LA alone", "result": "31.3 ± 5.9", "unit": "pM"}, {"measurement": "GLP-1 release, LA + E-stim (mean ± SEM)", "setting": "[1]; LA 3 mg/mL 45 min plus electrical stimulation 4 Hz 14 V 5 ms, p 0.838 vs LA alone", "result": "9.1 ± 1.4", "unit": "pM"}, {"measurement": "GLP-1 release, LA + E-stim (mean ± SEM)", "setting": "[1]; LA 3 mg/mL 45 min plus electrical stimulation 20 Hz 14 V 5 ms, p 0.152 vs LA alone", "result": "32.6 ± 12.2", "unit": "pM"}, {"measurement": "GLP-1 release, LA + E-stim (mean ± SEM)", "setting": "[1]; LA 3 mg/mL 45 min plus electrical stimulation 40 Hz 14 V 5 ms, p 0.016 vs LA alone", "result": "38.1 ± 11.1", "unit": "pM"}, {"measurement": "GLP-1 release, LA + E-stim (mean ± SEM)", "setting": "[1]; LA 3 mg/mL 45 min plus electrical stimulation 80 Hz 14 V 5 ms, p 0.391, includes one result designated 100 pM (upper level of detection, actual 178 pM)", "result": "33.7 ± 12.4", "unit": "pM"}, {"measurement": "LA-evoked increase of GLP-1 in the presence of TTX", "setting": "[1]; TTX 0.5 μM concurrently with linoleic acid for 45 min (FIG. 7)", "result": "persisted"}, {"measurement": "GLP-1 released after 45 mins incubation in LA", "setting": "[1]; compiled data from 51 distal ileum segments, LA 3 mg/mL, mean ± SEM, KRB buffer alone 3.6 pM", "result": "21.9 ± 2.6", "unit": "pM"}, {"measurement": "Enhancement of GLP-1 released during incubation with nutrient stimulus by E-stim compared to LA alone", "setting": "[1]; four electrical stimulation conditions with total charge 1400, 1680, 2800 and 5600 μC", "result": "150-300%"}, {"measurement": "Increase of GLP-1 release by electrical stimulation together with LA over that evoked by LA alone", "setting": "[1]; in the presence of TTX 0.5 μM, E-stim 14V 0.4 Hz 300 ms, 45 min", "result": "239±64", "unit": "%"}, {"measurement": "LA concentration giving maximal GLP-1 response", "setting": "[1]; tissue incubated in 1, 3 and 10 mg/mL LA, data not shown", "result": 3, "unit": "mg/mL"}, {"measurement": "GLP-1 concentration over time", "setting": "[1]; two segments of ileum incubated in 3 mg/ml LA (FIG. 4)", "result": "increased over time"}, {"measurement": "Change in muscle tone of isolated ileum after 40 min compared to KRB buffer", "setting": "isolated ileum; LA combined with E-stim 14V 40 Hz 5 ms", "result": "significant reduction"}, {"measurement": "Change in muscle tone of isolated ileum after 40 min compared to KRB buffer", "setting": "isolated ileum; LA combined with E-stim 14 V 80 Hz 5 ms", "result": "significant reduction"}, {"measurement": "Muscle tone of isolated ileum compared to KRB buffer alone", "setting": "isolated ileum; LA with E-stim 14V 0.4 Hz 300 ms", "result": "not different"}, {"measurement": "Muscle tone of isolated ileum compared to KRB buffer alone", "setting": "isolated ileum; LA with E-stim 14V 20 Hz 5 ms", "result": "not different"}, {"measurement": "Change in muscle tone of isolated ileum after 40 min", "setting": "isolated ileum; incubation in LA alone (FIG. 9)", "result": "tended to decrease"}, {"measurement": "GLP-1 concentration in the bathing medium", "setting": "[2]; segments of duodenum, jejunum ileum and colon", "result": "increased"}, {"measurement": "GLP-1 concentration in the bathing medium", "setting": "[2]; segments of esophagus or stomach", "result": "not"}]}
{"smiles": "NC1=N[C@H](O)[C@H]2[C@H]3O[C@]4(O)O[C@@H]([C@@H](O)[C@@]2(N1)[C@@H]4O)[C@]3(O)CO", "note": "[TTX, tetrodotoxin]", "values": [{"measurement": "Effect of TTX alone on GLP-1 release", "setting": "[1]", "result": "no effect"}, {"measurement": "Effect of tetrodotoxin on the two-fold increase in GLP-1 evoked by direct electrical stimulation of ileal tissue", "setting": "[1]", "result": "did not prevent"}]}
